Data reported in patent US6479265B1, “Catalytic antibodies which hydrolyze primary amides and methods for eliciting and use of such antibodies” (Igen International, Inc., priority 1993, dated 2002).

System: 13D11
Experiment: Inhibition of hydrolysis of 10 by 13D11 (secondary screening)
Type: biochemical, mice
Settings: buffer tried as an alternative to Tris
Protocol: Antibody 13D11 (14.5 μM) was re-screened for activity toward 10 (nominally 500 μM) in the absence and presence of 63 μM (RT-2 hapten)(D/L mixture).
Until this point, 13D11 antibody had been purified by Protein A and DEAE chromatography. To determine whether the activity toward 10 was due to a contaminating enzyme, 13D11 was further purified on a Mono Q column (Pharmacia) by FPLC.

In the case of O=S(=O)(O)CCNC1CCCCC1 [CHES], the “inhibition of the hydrolysis of 10 by 13D11” value is reported as “found to inhibit”.
